Reference: PubChem BioAssay AID328 (DTP/NCI, 2004)
Values joined by “and” are separate entries in the source; they are usually repeats but may differ in a detail not shown here. Identical values can stand only once. Toxic doses and inconclusive results are not listed.

Tested on: BDF1 mice, P388 leukemia ip, median survival T/C
Test: NCI In Vivo Anticancer Drug Screen. Data for tumor model P388 Leukemia (intraperitoneal) in B6D2F1 (BDF1) mice
Details: endpoint: median survival time, higher = longer survival
Outline: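 T/C = treated-group survival ÷ vehicle-control survival; tumour transplanted into mice before dosing.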

[1] = dose: 100.0 mg/kg/injection, schedule: Q04DX003 (ip), vehicle: saline with Tween-80
[2] = dose: 200.0 mg/kg/injection, schedule: Q04DX003 (ip), vehicle: saline with Tween-80
[3] = dose: 400.0 mg/kg/injection, schedule: Q04DX003 (ip), vehicle: saline with Tween-80
[4] = dose: 25.0 mg/kg/injection, schedule: Q01DX009 (ip), vehicle: saline with Tween-80
[5] = dose: 1.56 mg/kg/injection, schedule: Q01DX009 (ip), vehicle: saline with Tween-80
[6] = dose: 100.0 mg/kg/injection, schedule: Q01DX009 (ip), vehicle: Klucel (hydroxypropylcellulose) (HPC)
[7] = dose: 200.0 mg/kg/injection, schedule: Q01DX009 (ip), vehicle: Klucel (hydroxypropylcellulose) (HPC)
[8] = dose: 50.0 mg/kg/injection, schedule: Q01DX009 (ip), vehicle: saline with Tween-80
[9] = dose: 100.0 mg/kg/injection, schedule: Q01DX009 (ip), vehicle: saline with Tween-80
[10] = dose: 200.0 mg/kg/injection, schedule: Q01DX009 (ip), vehicle: saline with Tween-80
[11] = dose: 100.0 mg/kg/injection, schedule: Q04DX003 (ip), vehicle: Klucel (hydroxypropylcellulose) (HPC)
[12] = dose: 200.0 mg/kg/injection, schedule: Q04DX003 (ip), vehicle: Klucel (hydroxypropylcellulose) (HPC)
[13] = dose: 400.0 mg/kg/injection, schedule: Q04DX003 (ip), vehicle: Klucel (hydroxypropylcellulose) (HPC)

With `CC(=O)OC1C2(CC3N4C(=O)C5(CO)SSC4(CC31O)C(=O)N5C)OC(C)C(C)(C)C2=O` (stereo not given) the T/C (dose: 3.13 mg/kg/injection, schedule: Q01DX009 (oral), vehicle: saline) was 95 % of control, the T/C (dose: 6.25 mg/kg/injection, schedule: Q01DX009 (oral), vehicle: saline) was 100 % of control and the T/C (dose: 12.5 mg/kg/injection, schedule: Q01DX009 (oral), vehicle: saline) was 103 % of control.

In the case of `CC1(C)N=C(N)N=C(N)N1c1cccc(Br)c1`, the T/C (dose: 2.7 mg/kg/injection, schedule: Q04DX003 (ip), vehicle: saline) is reported as 100 % of control, the T/C (dose: 4.0 mg/kg/injection, schedule: Q04DX003 (ip), vehicle: saline) is reported as 90 % of control and the T/C (dose: 33.0 mg/kg/injection, schedule: Q04DX003 (ip), vehicle: saline) is reported as 168 % of control. The T/C (dose: 50.0 mg/kg/injection, schedule: Q04DX003 (ip), vehicle: saline) was 177 % of control and 179 % of control and the T/C (dose: 75.0 mg/kg/injection, schedule: Q04DX003 (ip), vehicle: saline) was 90 % of control.

`CCCCCCCCNc1ccccc1` was tested, and the T/C (dose: 100.0 mg/kg/injection, schedule: Q01DX001 (ip), vehicle: saline sonified) was 87 % of control and the T/C (dose: 400.0 mg/kg/injection, schedule: Q01DX001 (ip), vehicle: saline sonified) was 91 % of control.

In the case of `CC1(C)SC2C(NC(=O)C(C(=O)O)c3ccccc3)C(=O)N2C1C(=O)O` (stereo not given), the T/C (dose: 50.0 mg/kg/injection, schedule: Q01DX010 (ip), vehicle: saline) is reported as 122 % of control, the T/C (dose: 100.0 mg/kg/injection, schedule: Q01DX010 (ip), vehicle: saline) is reported as 113 % of control and the T/C (dose: 200.0 mg/kg/injection, schedule: Q01DX010 (ip), vehicle: saline) is reported as 113 % of control. For the same molecule, the T/C (dose: 400.0 mg/kg/injection, schedule: Q01DX010 (ip), vehicle: saline) was 118 % of control.

With `O=C1CC(c2ccc([N+](=O)[O-])cc2)=Nc2ccccc2N1` the T/C [1] was 109 % of control, the T/C [2] was 104 % of control and the T/C [3] was 114 % of control.

For `COc1cc(Nc2nc(N)ncc2N)cc(OC)c1OC`, the T/C (dose: 100.0 mg/kg/injection, schedule: Q01DX001 (ip), vehicle: saline with Tween-80) was 91 % of control, the T/C (dose: 200.0 mg/kg/injection, schedule: Q01DX001 (ip), vehicle: saline with Tween-80) was 91 % of control and the T/C (dose: 400.0 mg/kg/injection, schedule: Q01DX001 (ip), vehicle: saline with Tween-80) was 100 % of control.

In the case of `Cc1c(F)cc(I)cc1[N+](=O)[O-]`, the T/C (dose: 100.0 mg/kg/injection, schedule: Q01DX001 (ip), vehicle: Klucel (hydroxypropylcellulose) (HPC)) is reported as 113 % of control, the T/C (dose: 200.0 mg/kg/injection, schedule: Q01DX001 (ip), vehicle: Klucel (hydroxypropylcellulose) (HPC)) is reported as 104 % of control and the T/C (dose: 400.0 mg/kg/injection, schedule: Q01DX001 (ip), vehicle: Klucel (hydroxypropylcellulose) (HPC)) is reported as 118 % of control.

In the case of `O=C1OC(=O)c2c(Br)c(Br)c(Br)c(Br)c21`, the T/C [4] is reported as 109 % of control, the T/C (dose: 56.25 mg/kg/injection, schedule: Q01DX009 (ip), vehicle: saline with Tween-80) is reported as 90 % of control and the T/C (dose: 75.0 mg/kg/injection, schedule: Q01DX009 (ip), vehicle: saline with Tween-80) is reported as 113 % of control. For the same molecule, the T/C (dose: 150.0 mg/kg/injection, schedule: Q01DX009 (ip), vehicle: saline with Tween-80) was 109 % of control.

For `O=C(Nc1ccc(C2=NCCN2)cc1)c1ccc(C(=O)Nc2ccc(C3=NCCN3)cc2)c(Cl)c1`, the T/C [5] was 152 % of control, the T/C (dose: 3.13 mg/kg/injection, schedule: Q01DX009 (ip), vehicle: saline with Tween-80) was 161 % of control and the T/C (dose: 6.25 mg/kg/injection, schedule: Q01DX009 (ip), vehicle: saline with Tween-80) was 189 % of control and 204 % of control. The T/C (dose: 8.0 mg/kg/injection, schedule: Q01DX010 (ip), vehicle: water) was 150 % of control and 160 % of control, the T/C (dose: 10.0 mg/kg/injection, schedule: Q01DX010 (ip), vehicle: water) was 154 % of control and 195 % of control and the T/C (dose: 12.0 mg/kg/injection, schedule: Q01DX010 (ip), vehicle: water) was 160 % of control and 170 % of control. For the same molecule, the T/C (dose: 12.5 mg/kg/injection, schedule: Q01DX009 (ip), vehicle: saline with Tween-80) was 250 % of control and 200 % of control and 211 % of control and the T/C [4] was 270 % of control and 108 % of control.

With `O=C(O)/C(Cl)=C(Cl)\C=N\Nc1ccccc1` the T/C (dose: 200.0 mg/kg/injection, schedule: Q04DX002 (ip), vehicle: saline with Tween-80) was 98 % of control.

With `O=C(O)C1(C(=O)O)CCC1.[NH2-].[NH2-].[Pt+2]` the T/C (dose: 43.2 mg/kg/injection, schedule: Q01DX001 (ip), vehicle: saline) was 120 % of control.

`Nc1nc(N)nc(CCP(CCc2nc(N)nc(N)n2)CCc2nc(N)nc(N)n2)n1` was tested, and the T/C (dose: 50.0 mg/kg/injection, schedule: Q04DX003 (ip), vehicle: saline sonified) was 100 % of control, the T/C (dose: 100.0 mg/kg/injection, schedule: Q04DX003 (ip), vehicle: saline sonified) was 110 % of control and the T/C (dose: 200.0 mg/kg/injection, schedule: Q04DX003 (ip), vehicle: saline sonified) was 110 % of control.

In the case of `NS(=O)(=O)c1ccc(NC(=O)c2ccccc2C(=O)O)cc1`, the T/C [6] is reported as 95 % of control, the T/C [7] is reported as 100 % of control and the T/C (dose: 400.0 mg/kg/injection, schedule: Q01DX009 (ip), vehicle: Klucel (hydroxypropylcellulose) (HPC)) is reported as 105 % of control.

With `CCCCc1ccc(C(=O)O)nc1` the T/C (dose: 12.5 mg/kg/injection, schedule: Q01DX009 (ip), vehicle: saline) was 100 % of control, the T/C (dose: 25.0 mg/kg/injection, schedule: Q01DX009 (ip), vehicle: saline) was 102 % of control and the T/C (dose: 50.0 mg/kg/injection, schedule: Q01DX009 (ip), vehicle: saline) was 102 % of control.

For `COC(=O)C(Sc1ccc(Cl)cc1)C1SC(=S)N(Cc2ccccc2)C1=O` (stereo not given), the T/C [8] was 104 % of control, the T/C [9] was 118 % of control and the T/C [10] was 109 % of control.

In the case of `CSc1ccc(NC(=O)NNP(=S)(Oc2ccc(C(C)(C)C)cc2)Oc2ccc(C(C)(C)C)cc2)cc1`, the T/C (dose: 50.0 mg/kg/injection, schedule: Q01DX005 (ip), vehicle: saline with Tween-80) is reported as 96 % of control and the T/C (dose: 100.0 mg/kg/injection, schedule: Q01DX005 (ip), vehicle: saline with Tween-80) is reported as 96 % of control.

For `O=C(CC(O)(C(F)(F)F)C(F)(F)F)c1ccccc1Cl`, the T/C [1] was 120 % of control, the T/C [2] was 100 % of control and the T/C [3] was 120 % of control.

For `Clc1ccc(-c2n[se]c(-c3ccc(Cl)cc3)n2)cc1`, the T/C (dose: 0.19 mg/kg/injection, schedule: Q01DX009 (ip), vehicle: saline with Tween-80) was 98 % of control, the T/C (dose: 0.39 mg/kg/injection, schedule: Q01DX009 (ip), vehicle: saline with Tween-80) was 101 % of control and the T/C (dose: 0.78 mg/kg/injection, schedule: Q01DX009 (ip), vehicle: saline with Tween-80) was 95 % of control. The T/C [5] was 96 % of control.

`CC1=CC(=O)OC(C)(C)C1` was tested, and the T/C (dose: 100.0 mg/kg/injection, schedule: Q04DX003 (ip), vehicle: saline) was 100 % of control, the T/C (dose: 200.0 mg/kg/injection, schedule: Q04DX003 (ip), vehicle: saline) was 100 % of control and the T/C (dose: 400.0 mg/kg/injection, schedule: Q04DX003 (ip), vehicle: saline) was 100 % of control.

In the case of `Cc1ccc([N+](=O)[O-])cc1NC(=O)SCCOC(=O)COc1ccc(Cl)cc1Cl`, the T/C [1] is reported as 86 % of control, the T/C [2] is reported as 100 % of control and the T/C [3] is reported as 90 % of control.

With `S=C(Nc1ccccn1)Nc1ccccn1` the T/C (dose: 25.0 mg/kg/injection, schedule: Q01DX009 (ip), vehicle: Klucel (hydroxypropylcellulose) (HPC)) was 99 % of control and 106 % of control, the T/C (dose: 50.0 mg/kg/injection, schedule: Q01DX009 (ip), vehicle: Klucel (hydroxypropylcellulose) (HPC)) was 99 % of control and 118 % of control and the T/C [6] was 89 % of control and 116 % of control. For the same molecule, the T/C [7] was 98 % of control.

`CC(c1ccccc1)C1N(c2ccccc2)CCN1c1ccccc1` (stereo not given) was tested, and the T/C (dose: 50.0 mg/kg/injection, schedule: Q04DX003 (ip), vehicle: Klucel (hydroxypropylcellulose) (HPC)) was 107 % of control, the T/C [11] was 96 % of control and the T/C [12] was 107 % of control. The T/C [13] was 111 % of control.

In the case of `CCCCCCCCCCCCCCCCCC(=O)Oc1ccc(OCc2ccccc2)cc1`, the T/C [11] is reported as 100 % of control, the T/C [12] is reported as 100 % of control and the T/C [13] is reported as 90 % of control.

In the case of `Cc1ccc(C)c2c1CCCC2=O`, the T/C [8] is reported as 86 % of control, the T/C [9] is reported as 90 % of control and the T/C [10] is reported as 100 % of control. The T/C (dose: 400.0 mg/kg/injection, schedule: Q01DX009 (ip), vehicle: saline with Tween-80) was 86 % of control.

With `CCCCSc1ncnc2c1ncn2C1CCCCO1` (stereo not given) the T/C (dose: 100.0 mg/kg/injection, schedule: Q01DX009 (ip), vehicle: saline sonified) was 90 % of control, the T/C [1] was 87 % of control and the T/C (dose: 200.0 mg/kg/injection, schedule: Q01DX009 (ip), vehicle: saline sonified) was 122 % of control. The T/C [2] was 100 % of control, the T/C (dose: 400.0 mg/kg/injection, schedule: Q01DX009 (ip), vehicle: saline sonified) was 100 % of control and the T/C [3] was 100 % of control.
